Biological target: mPTPB (Mycobacterium tuberculosis, UniProt I6WXK4)
Assay: PTP activity assay with pNPP substrate, mPTPB
Type: biochemical
Settings: ratio of IC50 values

mPTPB, sequence (I6WXK4 whole entry, looked up): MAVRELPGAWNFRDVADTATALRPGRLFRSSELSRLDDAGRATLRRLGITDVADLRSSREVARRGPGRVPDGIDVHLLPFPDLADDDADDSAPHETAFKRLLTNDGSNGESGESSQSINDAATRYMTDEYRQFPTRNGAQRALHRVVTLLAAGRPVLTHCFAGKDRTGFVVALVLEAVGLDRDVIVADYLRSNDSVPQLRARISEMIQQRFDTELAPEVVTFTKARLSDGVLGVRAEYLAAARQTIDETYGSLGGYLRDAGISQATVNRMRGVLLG

Cc1ccc(S(=O)(=O)NNC(=O)COc2ccc3cc(C(O)(C(F)(F)F)C(F)(F)F)c(O)cc3c2)cc1 [7r]
selectivity for mPTPB compared to SHP2, PTP1B, CD45, LYP, and FAP-1: more than 7 fold

— PMC4982551 (MedChemComm, 2016)
